In PubChem BioAssay (NCI):
Where “and” joins values, the source holds several entries; their conditions need not be identical. Equal values may be shown once.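 Growth conditions: 96-well plates. Treatment: test compound, 48 hours, 5 concentrations. Analysis: linear interpolation between bracketing concentrations; unreached endpoints set to highest concentration. Here, GI50 denotes the concentration required for 50% inhibition of growth. TGI: concentration producing complete growth inhibition.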 Where a SMILES comes first, the peptide text is derived from it. [ ]: non-standard residue; d: D form. 2Nal = N[CH](Cc1ccc2ccccc2c1)C(=O)O

What was measured:
Assay in all cases: DTP human tumour cell line panel, 48 h
DU-145 prostate = tested on: DU-145 prostate
K-562 leukemia = tested on: K-562 leukemia
SNB-19 CNS = tested on: SNB-19 CNS
OVCAR-3 ovarian = tested on: OVCAR-3 ovarian
HOP-62 NSCLC = tested on: HOP-62 NSCLC
OVCAR-4 ovarian = tested on: OVCAR-4 ovarian
KM12 colon = tested on: KM12 colon
NCI/ADR-RES ovarian = tested on: NCI/ADR-RES ovarian
HOP-92 NSCLC = tested on: HOP-92 NSCLC
PC-3 prostate = tested on: PC-3 prostate

## Cc1ccnc2c1NC(=O)c1cccnc1N2C1CC1
DU-145 prostate
  GI50: > 100 µM
  TGI: > 100 µM
K-562 leukemia
  GI50: > 100 µM
  TGI: > 100 µM
SNB-19 CNS
  GI50: > 100 µM
  TGI: > 100 µM
OVCAR-3 ovarian
  GI50: > 100 µM
  TGI: > 100 µM
HOP-62 NSCLC
  GI50: > 100 µM
  TGI: > 100 µM
OVCAR-4 ovarian
  GI50: > 100 µM
  TGI: > 100 µM
KM12 colon
  GI50: > 100 µM
  TGI: > 100 µM
NCI/ADR-RES ovarian
  GI50: > 100 µM
  TGI: > 100 µM
HOP-92 NSCLC
  GI50: > 100 µM
  TGI: > 100 µM
PC-3 prostate
  GI50: > 100 µM
  TGI: > 100 µM

## C[C@]12CC[C@H]3[C@@H](C[C@@H]4SC(Nc5cccc(F)c5)=N[C@@]45CC(=O)CC[C@]35C)[C@@H]1CCC2=O
DU-145 prostate
  GI50: 1.93 µM
  TGI: 4.87 µM
SNB-19 CNS
  GI50: 2.33 µM
  TGI: 5.69 µM
OVCAR-3 ovarian
  GI50: 1.72 µM
  TGI: 3.3 µM
HOP-62 NSCLC
  GI50: 2.07 µM
  TGI: 5.34 µM
OVCAR-4 ovarian
  GI50: 2.71 µM
  TGI: > 100 µM
KM12 colon
  GI50: 3 µM
  TGI: 12.4 µM
NCI/ADR-RES ovarian
  GI50: 2.81 µM
  TGI: 17.2 µM
HOP-92 NSCLC
  GI50: 2.25 µM
  TGI: 4.17 µM
PC-3 prostate
  GI50: 1.88 µM
  TGI: 3.87 µM

## O=[N+]([O-])c1ccc2nc(N/N=C/c3ccc(O)cc3)sc2c1
DU-145 prostate
  GI50: 3.96 µM
  TGI: 38.1 µM
K-562 leukemia
  GI50: 2.58 µM
  TGI: > 100 µM
SNB-19 CNS
  GI50: 6.24 µM
  TGI: > 100 µM
OVCAR-3 ovarian
  GI50: 3.4 µM
  TGI: 14.6 µM
HOP-62 NSCLC
  GI50: 8.82 µM
  TGI: 30.7 µM
OVCAR-4 ovarian
  GI50: 3.92 µM
  TGI: 51.8 µM
KM12 colon
  GI50: 2.72 µM
  TGI: 17.2 µM
NCI/ADR-RES ovarian
  GI50: 3.86 µM
  TGI: > 100 µM
HOP-92 NSCLC
  GI50: 2.17 µM
  TGI: 8.96 µM
PC-3 prostate
  GI50: 4.51 µM
  TGI: 34.2 µM

## C[C@]12CC[C@@H]3c4ccc(O)cc4CC[C@H]3[C@@H]1CC[C@@H]2NS(=O)(=O)c1cccc(Br)c1
DU-145 prostate
  GI50: 5.22 µM
  TGI: 17 µM
K-562 leukemia
  GI50: 3.59 µM
  TGI: 14.8 µM
SNB-19 CNS
  GI50: 7.09 µM
  TGI: 20.4 µM
HOP-62 NSCLC
  GI50: 10.4 µM
  TGI: 22.5 µM
OVCAR-4 ovarian
  GI50: 2.45 µM
  TGI: 9.98 µM
KM12 colon
  GI50: 2.31 µM
  TGI: 6.76 µM
NCI/ADR-RES ovarian
  GI50: 3.14 µM
  TGI: 13.6 µM
HOP-92 NSCLC
  GI50: 1.85 µM
  TGI: 6.44 µM
PC-3 prostate
  GI50: 2.83 µM
  TGI: 12.2 µM

## CC(=O)Nc1ccc(/C=c2\sc3nnc(/C=C/c4ccccc4)n3c2=O)cc1
K-562 leukemia
  TGI: > 50 µM
SNB-19 CNS
  TGI: > 50 µM
OVCAR-3 ovarian
  TGI: > 50 µM
HOP-62 NSCLC
  TGI: > 50 µM
OVCAR-4 ovarian
  TGI: > 50 µM
KM12 colon
  TGI: > 50 µM

## CC1CC2C3CC(F)C4=CC(=O)C=CC4(C)C3(F)C(O)CC2(C)C1(O)C(=O)CO (stereo unspecified)
K-562 leukemia
  TGI: > 100 µM
SNB-19 CNS
  TGI: > 100 µM
OVCAR-3 ovarian
  TGI: > 100 µM
HOP-62 NSCLC
  TGI: > 100 µM
OVCAR-4 ovarian
  TGI: > 100 µM
KM12 colon
  TGI: > 100 µM
HOP-92 NSCLC
  TGI: > 100 µM

## O=C1CCC(=O)c2cc(Br)ccc2N1
K-562 leukemia
  TGI: > 100 µM
SNB-19 CNS
  TGI: > 100 µM
OVCAR-3 ovarian
  TGI: > 100 µM
HOP-62 NSCLC
  TGI: > 100 µM
OVCAR-4 ovarian
  TGI: > 100 µM
KM12 colon
  TGI: > 100 µM
HOP-92 NSCLC
  TGI: > 100 µM

## Cc1ccc(NC(=O)SCCC(=O)O)cc1NC(=O)SCCC(=O)O
K-562 leukemia
  TGI: > 100 µM
SNB-19 CNS
  TGI: > 100 µM
OVCAR-3 ovarian
  TGI: > 100 µM
HOP-62 NSCLC
  TGI: > 100 µM
OVCAR-4 ovarian
  TGI: > 100 µM
KM12 colon
  TGI: > 100 µM

## COc1cc2c(cc1OC)-c1c(cc(OC)c(OC)c1OC)C2=O
K-562 leukemia
  TGI: > 100 µM
SNB-19 CNS
  TGI: > 100 µM
OVCAR-3 ovarian
  TGI: > 100 µM
HOP-62 NSCLC
  TGI: > 100 µM
KM12 colon
  TGI: > 100 µM
HOP-92 NSCLC
  TGI: > 100 µM

## Oc1cccc(C2SCc3nc4ccccc4n32)c1 (stereo unspecified)
K-562 leukemia
  TGI: > 100 µM
SNB-19 CNS
  TGI: > 100 µM
OVCAR-3 ovarian
  TGI: > 100 µM
KM12 colon
  TGI: > 100 µM
HOP-92 NSCLC
  TGI: > 100 µM

## O=C(O)/C(O)=C1/C=C(c2ccccc2)c2ccccc21
K-562 leukemia
  TGI: 73.5 µM
SNB-19 CNS
  TGI: 83.9 µM
HOP-62 NSCLC
  TGI: 55.2 µM
OVCAR-4 ovarian
  TGI: 80.7 µM
KM12 colon
  TGI: 32.4 µM
HOP-92 NSCLC
  TGI: 34.8 µM

## O=C(Nc1cc(C(F)(F)F)ccc1Cl)C(=O)C(C(=O)c1ccc2ccccc2c1)C1OC(=O)c2ccccc21 (stereo unspecified)
K-562 leukemia
  TGI: 49.6 µM
SNB-19 CNS
  TGI: 20.6 µM
OVCAR-3 ovarian
  TGI: > 50.7 µM
HOP-62 NSCLC
  TGI: 16.1 µM
OVCAR-4 ovarian
  TGI: > 59.3 µM
KM12 colon
  TGI: 27.4 µM
HOP-92 NSCLC
  TGI: 28.1 µM

## CC1=CC(C)C(O)C(C)/C=C/C(O)C/C=C(/C)C(=O)CC(O)C(C)\C=C/C=C/C=C\C(=O)NC2=C(O)c3cc(C)c(O)c(c3C(=O)C2=O)C1=O (stereo unspecified)
DU-145 prostate
  TGI: > 100 µM
SNB-19 CNS
  TGI: > 100 µM
OVCAR-3 ovarian
  TGI: > 100 µM
HOP-62 NSCLC
  TGI: > 100 µM
OVCAR-4 ovarian
  TGI: > 100 µM
KM12 colon
  TGI: > 100 µM
NCI/ADR-RES ovarian
  TGI: > 100 µM
HOP-92 NSCLC
  TGI: > 100 µM
PC-3 prostate
  TGI: > 100 µM

## CNC(=O)OCc1nc(S(C)=O)n(C)c1COC(=O)NC (stereo unspecified)
K-562 leukemia
  TGI: > 100 µM
SNB-19 CNS
  TGI: > 100 µM
OVCAR-3 ovarian
  TGI: > 100 µM
HOP-62 NSCLC
  TGI: > 100 µM
OVCAR-4 ovarian
  TGI: > 71.6 µM
KM12 colon
  TGI: > 100 µM
NCI/ADR-RES ovarian
  TGI: > 100 µM
HOP-92 NSCLC
  TGI: > 77.8 µM

## COc1ccc2cc(C(=O)/C=C/c3ccc(OC)c(OC)c3)ccc2c1
DU-145 prostate
  GI50: 15.5 µM
  TGI: 80.1 µM
K-562 leukemia
  GI50: 5 µM
  TGI: 94.9 µM
SNB-19 CNS
  GI50: 27.2 µM
  TGI: 80 µM
OVCAR-3 ovarian
  GI50: 14.8 µM
  TGI: > 100 µM
HOP-62 NSCLC
  GI50: 18 µM
  TGI: 41.6 µM
KM12 colon
  GI50: 4.82 µM
  TGI: 32.1 µM
HOP-92 NSCLC
  GI50: 13.2 µM
  TGI: 80.3 µM
PC-3 prostate
  GI50: 20.2 µM
  TGI: > 100 µM

## CSc1s[s+]c(SC)c1[O-]
K-562 leukemia
  TGI: 25.2 µM
SNB-19 CNS
  TGI: > 100 µM
OVCAR-3 ovarian
  TGI: 67.2 µM
HOP-62 NSCLC
  TGI: > 100 µM
OVCAR-4 ovarian
  TGI: > 100 µM
KM12 colon
  TGI: > 100 µM
HOP-92 NSCLC
  TGI: > 100 µM

## N/C(=N\C(=S)N1CCCCC1)N1CCCCC1
K-562 leukemia
  TGI: > 100 µM
SNB-19 CNS
  TGI: > 100 µM
HOP-62 NSCLC
  TGI: > 100 µM
OVCAR-4 ovarian
  TGI: > 100 µM
KM12 colon
  TGI: > 100 µM
HOP-92 NSCLC
  TGI: > 100 µM

## O=C1OC(c2ccc([N+](=O)[O-])cc2)=N/C1=C\c1ccc(O)cc1
DU-145 prostate
  TGI: > 100 µM
K-562 leukemia
  TGI: > 100 µM
SNB-19 CNS
  TGI: > 100 µM
OVCAR-3 ovarian
  TGI: > 100 µM
HOP-62 NSCLC
  TGI: > 100 µM
OVCAR-4 ovarian
  TGI: > 100 µM
KM12 colon
  TGI: > 100 µM
HOP-92 NSCLC
  TGI: > 100 µM
PC-3 prostate
  TGI: > 100 µM

## CC(NC(=O)C(N)Cc1ccccc1)C(=O)NC(Cc1ccc(O)cc1)C(=O)NC(Cc1c[nH]c2ccccc12)C(=O)NC(CCCCN)C(=O)NC(C(=O)NC(C)C(=O)NC(Cc1ccc2ccccc2c1)C(N)=O)C(C)C (stereo unspecified) (H-FAYWKVA[2Nal]-NH2; configuration not given here)
DU-145 prostate
  TGI: > 12.5 µM
K-562 leukemia
  GI50: 16.9 µM
  TGI: > 12.5 µM and 30.5 µM
SNB-19 CNS
  TGI: 71.1 µM
OVCAR-3 ovarian
  GI50: 18.8 µM
  TGI: > 12.5 µM and 43.2 µM
HOP-62 NSCLC
  GI50: 23.1 µM
  TGI: > 12.5 µM and 53.5 µM
OVCAR-4 ovarian
  GI50: 27.2 µM
  TGI: > 12.5 µM and 84.3 µM
KM12 colon
  GI50: 21.9 µM
  TGI: > 12.5 µM and 53.3 µM
NCI/ADR-RES ovarian
  TGI: > 12.5 µM
PC-3 prostate
  TGI: > 12.5 µM

## O=C1OC(=O)C2C3CCC(O3)C12 (stereo unspecified)
K-562 leukemia
  TGI: > 100 µM
SNB-19 CNS
  TGI: > 100 µM
OVCAR-3 ovarian
  TGI: > 100 µM
HOP-62 NSCLC
  TGI: > 100 µM
KM12 colon
  TGI: > 100 µM
HOP-92 NSCLC
  TGI: > 100 µM
